Assay results from PubChem BioAssay (NCI).
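The concentration for 50% growth inhibition is given as GI50. Definition used: TGI = concentration required for complete inhibition of growth.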

Experiments:
Experiment in all cases: inhibition of tumour cell growth, NCI panel, 384-well format
SW-620 colon = system: SW-620 colon
ACHN renal = system: ACHN renal
NCI-H23 lung = system: NCI-H23 lung
MDA-MB-435 melanoma = system: MDA-MB-435 melanoma
MDA-MB-468 breast = system: MDA-MB-468 breast
MOLT-4 leukemia = system: MOLT-4 leukemia
EKVX NSCLC = system: EKVX NSCLC
HL-60(TB) leukemia = system: HL-60(TB) leukemia
IGROV1 ovarian = system: IGROV1 ovarian
SK-OV-3 ovarian = system: SK-OV-3 ovarian
NCI-H522 lung = system: NCI-H522 lung
NCI-H460 NSCLC = system: NCI-H460 NSCLC
TK-10 renal = system: TK-10 renal
UACC-257 melanoma = system: UACC-257 melanoma
SR leukemia = system: SR leukemia
DU-145 prostate = system: DU-145 prostate
T-47D breast = system: T-47D breast
SN12C renal = system: SN12C renal
786-0 renal = system: 786-0 renal
NCI-H322M lung = system: NCI-H322M lung
K-562 leukemia = system: K-562 leukemia
U251 glioblastoma = system: U251 glioblastoma
SNB-19 CNS = system: SNB-19 CNS
HT29 colon = system: HT29 colon
HS 578T breast = system: HS 578T breast
SF-268 CNS = system: SF-268 CNS
HOP-62 NSCLC = system: HOP-62 NSCLC
SK-MEL-2 melanoma = system: SK-MEL-2 melanoma
SNB-75 CNS = system: SNB-75 CNS
PC-3 prostate = system: PC-3 prostate
UO-31 renal = system: UO-31 renal
OVCAR-3 ovarian = system: OVCAR-3 ovarian
OVCAR-8 ovarian = system: OVCAR-8 ovarian
SK-MEL-5 melanoma = system: SK-MEL-5 melanoma
SK-MEL-28 melanoma = system: SK-MEL-28 melanoma
OVCAR-4 ovarian = system: OVCAR-4 ovarian
RXF 393 renal = system: RXF 393 renal
NCI-H226 lung = system: NCI-H226 lung
HCT-116 colon = system: HCT-116 colon
MCF7 breast = system: MCF7 breast
KM12 colon = system: KM12 colon
BT-549 breast = system: BT-549 breast
OVCAR-5 ovarian = system: OVCAR-5 ovarian
CAKI-1 renal = system: CAKI-1 renal
HOP-92 NSCLC = system: HOP-92 NSCLC
MALME-3M melanoma = system: MALME-3M melanoma
UACC-62 melanoma = system: UACC-62 melanoma
A498 renal = system: A498 renal
A549 NSCLC = system: A549 NSCLC
HCT-15 colon = system: HCT-15 colon
SF-539 CNS = system: SF-539 CNS
SF-295 CNS = system: SF-295 CNS
COLO 205 colon = system: COLO 205 colon
MDA-MB-231 breast = system: MDA-MB-231 breast

In the case of `CC[C@@H]1C(=O)N(C)c2cnc(Nc3ccc(C(=O)NC4CCC(N5CCN(CC6CC6)CC5)CC4)cc3OC)nc2N1C(C)C` (stereo partly drawn), the GI50 (SW-620 colon) is reported as under 10 nM, the TGI (SW-620 colon) is reported as 107 nM and the GI50 (ACHN renal) is reported as 89.2 nM. The TGI (ACHN renal) was 1660 nM, the GI50 (NCI-H23 lung) was under 10 nM and the TGI (NCI-H23 lung) was 28.2 nM. It also gave a GI50 (MDA-MB-435 melanoma) of under 10 nM, a TGI (MDA-MB-435 melanoma) of 13.7 nM and a GI50 (MDA-MB-468 breast) of under 10 nM. It also gave a TGI (MDA-MB-468 breast) of under 10 nM, a GI50 (MOLT-4 leukemia) of under 10 nM and a TGI (MOLT-4 leukemia) of under 10 nM. It also gave a GI50 (EKVX NSCLC) of 37.1 nM, a TGI (EKVX NSCLC) of 235 nM and a GI50 (HL-60(TB) leukemia) of under 10 nM. The TGI (HL-60(TB) leukemia) was under 10 nM, the GI50 (IGROV1 ovarian) was 44.2 nM and the TGI (IGROV1 ovarian) was 1170 nM. The GI50 (SK-OV-3 ovarian) was 21.3 nM, the TGI (SK-OV-3 ovarian) was 176 nM and the GI50 (NCI-H522 lung) was under 10 nM. It also gave a TGI (NCI-H522 lung) of under 10 nM, a GI50 (NCI-H460 NSCLC) of under 10 nM and a TGI (NCI-H460 NSCLC) of 1280 nM. The GI50 (TK-10 renal) was 66.6 nM, the TGI (TK-10 renal) was 1390 nM and the GI50 (UACC-257 melanoma) was 1160 nM. For the same molecule, the TGI (UACC-257 melanoma) was 2390 nM, the GI50 (SR leukemia) was under 10 nM and the TGI (SR leukemia) was under 10 nM. For the same molecule, the GI50 (DU-145 prostate) was 16.6 nM, the TGI (DU-145 prostate) was 1200 nM and the GI50 (T-47D breast) was 191 nM. The TGI (T-47D breast) was 897 nM, the GI50 (SN12C renal) was 232 nM and the TGI (SN12C renal) was 3340 nM. For the same molecule, the GI50 ([…]-0 renal) was 90.7 nM, the TGI (786-0 renal) was 1150 nM and the GI50 (NCI-H322M lung) was 66 nM. For the same molecule, the TGI (NCI-H322M lung) was 1100 nM, the GI50 (K-562 leukemia) was under 10 nM and the TGI (K-562 leukemia) was 23.8 nM. For the same molecule, the GI50 (U251 glioblastoma) was 40.8 nM, the TGI (U251 glioblastoma) was 1420 nM and the GI50 (SNB-19 CNS) was 96.8 nM. It also gave a TGI (SNB-19 CNS) of 2970 nM, a GI50 (HT29 colon) of under 10 nM and a TGI (HT29 colon) of 11.1 nM. It also gave a GI50 (HS 578T breast) of 19.5 nM, a TGI (HS 578T breast) of 49.7 nM and a GI50 (SF-268 CNS) of 32.1 nM. The TGI (SF-268 CNS) was 1310 nM, the GI50 (HOP-62 NSCLC) was 23.3 nM and the TGI (HOP-62 NSCLC) was 1160 nM. It also gave a GI50 (SK-MEL-2 melanoma) of under 10 nM, a TGI (SK-MEL-2 melanoma) of 26.7 nM and a GI50 (SNB-75 CNS) of 71.4 nM. It also gave a TGI (SNB-75 CNS) of 2100 nM, a GI50 (PC-3 prostate) of 53.4 nM and a TGI (PC-3 prostate) of 2630 nM. It also gave a GI50 (UO-31 renal) of 589 nM, a TGI (UO-31 renal) of 1870 nM and a GI50 (OVCAR-3 ovarian) of under 10 nM. The TGI (OVCAR-3 ovarian) was 145 nM, the GI50 (OVCAR-8 ovarian) was 18.1 nM and the TGI (OVCAR-8 ovarian) was 38.5 nM. The GI50 (SK-MEL-5 melanoma) was 14.7 nM, the TGI (SK-MEL-5 melanoma) was 127 nM and the GI50 (SK-MEL-28 melanoma) was 87.6 nM. It also gave a TGI (SK-MEL-28 melanoma) of 2120 nM, a GI50 (OVCAR-4 ovarian) of 222 nM and a TGI (OVCAR-4 ovarian) of 1120 nM. For the same molecule, the GI50 (RXF 393 renal) was under 10 nM, the TGI (RXF 393 renal) was 10.6 nM and the GI50 (NCI-H226 lung) was 151 nM. It also gave a TGI (NCI-H226 lung) of 1750 nM, a GI50 (HCT-116 colon) of under 10 nM and a TGI (HCT-116 colon) of 1030 nM. It also gave a GI50 (MCF7 breast) of 11 nM, a TGI (MCF7 breast) of 1270 nM and a GI50 (KM12 colon) of 10.3 nM. It also gave a TGI (KM12 colon) of 50.7 nM, a GI50 (BT-549 breast) of 19.6 nM and a TGI (BT-549 breast) of 159 nM. For the same molecule, the GI50 (OVCAR-5 ovarian) was 38.9 nM, the TGI (OVCAR-5 ovarian) was 1710 nM and the GI50 (CAKI-1 renal) was 100 nM. For the same molecule, the TGI (CAKI-1 renal) was 1540 nM, the GI50 (HOP-92 NSCLC) was 96.9 nM and the TGI (HOP-92 NSCLC) was 1700 nM. The GI50 (MALME-3M melanoma) was 44.6 nM, the TGI (MALME-3M melanoma) was 1760 nM and the GI50 (UACC-62 melanoma) was 27.9 nM. It also gave a TGI (UACC-62 melanoma) of 1530 nM, a GI50 (A498 renal) of 69.6 nM and a TGI (A498 renal) of 1260 nM. The GI50 (A549 NSCLC) was 41.6 nM, the TGI (A549 NSCLC) was 1040 nM and the GI50 (HCT-15 colon) was 35.8 nM. The TGI (HCT-15 colon) was 549 nM, the GI50 (SF-539 CNS) was 30.5 nM and the TGI (SF-539 CNS) was 159 nM. For the same molecule, the GI50 (SF-295 CNS) was 31.4 nM, the TGI (SF-295 CNS) was 1510 nM and the GI50 (COLO 205 colon) was under 10 nM. For the same molecule, the TGI (COLO 205 colon) was 1310 nM, the GI50 (MDA-MB-231 breast) was 42.4 nM and the TGI (MDA-MB-231 breast) was 1790 nM.
